Source: patent US20260217673A1, “NOVEL COMPOUND AS RON INHIBITOR” (LG CHEM, LTD., priority 2022, published 2026)
pIC50: −log10 of the molar value.

Tests used:
RON = RON (Homo sapiens, UniProt Q04912); assay: RON inhibitory activity, TR-FRET kinase assay; assay type: biochemical; settings: RON protein, ULight-labeled Poly GT substrate
Procedure, shortened: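 RON was preincubated with compound for 20-30 min at room temperature in HEPES buffer (pH 7.4) with MgCl2 and DTT. Phosphorylation of ULight-Poly GT with ATP ran 60 min before EDTA stop. Europium anti-phosphotyrosine TR-FRET (ex 340, em 620/665 nm) was read and IC50 derived from 10-point 3-fold dilutions.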

cMET = cMET (Homo sapiens, UniProt P08581); assay: MET (cMET) enzyme inhibitory activity, TR-FRET kinase assay; assay type: biochemical; settings: cMET protein, TK peptide substrate
Procedure, shortened: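 cMET diluted to 2 nM was preincubated 20–30 min at room temperature with compound (10-point 3-fold series from 1 mM DMSO stock). The reaction was started with TK peptide/ATP substrate mix prepared at 2× final (5 μM peptide, 10 mM ATP), run 60 min at room temperature in HEPES pH 7.4 buffer with MnCl2/MgCl2, then EDTA-stopped. Europium anti-phosphotyrosine TR-FRET (ex 340, em 620/665 nm) gave IC50.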

Sequence of cMET (P08581 25-1390): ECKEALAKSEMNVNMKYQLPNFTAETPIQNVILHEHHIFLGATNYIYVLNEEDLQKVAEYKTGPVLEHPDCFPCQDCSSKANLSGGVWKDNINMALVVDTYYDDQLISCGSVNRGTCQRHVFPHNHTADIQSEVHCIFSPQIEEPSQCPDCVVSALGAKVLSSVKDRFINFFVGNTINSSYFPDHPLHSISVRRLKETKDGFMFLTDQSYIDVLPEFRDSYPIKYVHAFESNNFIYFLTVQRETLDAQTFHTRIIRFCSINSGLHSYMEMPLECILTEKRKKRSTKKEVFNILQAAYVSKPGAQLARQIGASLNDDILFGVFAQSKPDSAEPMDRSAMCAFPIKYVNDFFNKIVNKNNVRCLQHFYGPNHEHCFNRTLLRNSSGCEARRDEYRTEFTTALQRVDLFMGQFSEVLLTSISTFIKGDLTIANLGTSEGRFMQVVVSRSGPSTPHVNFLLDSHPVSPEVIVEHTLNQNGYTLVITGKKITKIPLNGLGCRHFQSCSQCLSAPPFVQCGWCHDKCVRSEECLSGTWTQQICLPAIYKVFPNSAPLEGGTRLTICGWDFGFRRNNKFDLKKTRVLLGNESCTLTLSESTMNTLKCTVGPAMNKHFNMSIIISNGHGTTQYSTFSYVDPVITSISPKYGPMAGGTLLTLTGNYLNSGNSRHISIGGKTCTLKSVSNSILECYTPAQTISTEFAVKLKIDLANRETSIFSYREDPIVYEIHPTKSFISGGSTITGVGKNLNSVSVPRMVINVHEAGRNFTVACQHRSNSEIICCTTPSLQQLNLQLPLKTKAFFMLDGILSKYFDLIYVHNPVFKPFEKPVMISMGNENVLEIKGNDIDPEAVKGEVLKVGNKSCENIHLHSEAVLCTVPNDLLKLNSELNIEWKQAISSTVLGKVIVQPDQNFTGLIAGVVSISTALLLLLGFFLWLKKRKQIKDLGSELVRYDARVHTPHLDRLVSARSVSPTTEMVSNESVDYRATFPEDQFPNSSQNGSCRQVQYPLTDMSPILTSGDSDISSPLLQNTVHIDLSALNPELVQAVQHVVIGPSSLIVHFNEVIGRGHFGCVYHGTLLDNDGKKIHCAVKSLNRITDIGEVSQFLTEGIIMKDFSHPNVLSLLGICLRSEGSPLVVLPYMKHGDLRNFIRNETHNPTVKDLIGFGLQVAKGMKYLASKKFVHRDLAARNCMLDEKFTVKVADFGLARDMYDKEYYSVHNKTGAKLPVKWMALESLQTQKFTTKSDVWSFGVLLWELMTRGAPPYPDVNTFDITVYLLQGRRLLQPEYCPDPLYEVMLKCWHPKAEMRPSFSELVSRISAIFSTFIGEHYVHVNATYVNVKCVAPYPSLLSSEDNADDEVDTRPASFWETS
Sequence of RON (Q04912 25-1400, species assumed): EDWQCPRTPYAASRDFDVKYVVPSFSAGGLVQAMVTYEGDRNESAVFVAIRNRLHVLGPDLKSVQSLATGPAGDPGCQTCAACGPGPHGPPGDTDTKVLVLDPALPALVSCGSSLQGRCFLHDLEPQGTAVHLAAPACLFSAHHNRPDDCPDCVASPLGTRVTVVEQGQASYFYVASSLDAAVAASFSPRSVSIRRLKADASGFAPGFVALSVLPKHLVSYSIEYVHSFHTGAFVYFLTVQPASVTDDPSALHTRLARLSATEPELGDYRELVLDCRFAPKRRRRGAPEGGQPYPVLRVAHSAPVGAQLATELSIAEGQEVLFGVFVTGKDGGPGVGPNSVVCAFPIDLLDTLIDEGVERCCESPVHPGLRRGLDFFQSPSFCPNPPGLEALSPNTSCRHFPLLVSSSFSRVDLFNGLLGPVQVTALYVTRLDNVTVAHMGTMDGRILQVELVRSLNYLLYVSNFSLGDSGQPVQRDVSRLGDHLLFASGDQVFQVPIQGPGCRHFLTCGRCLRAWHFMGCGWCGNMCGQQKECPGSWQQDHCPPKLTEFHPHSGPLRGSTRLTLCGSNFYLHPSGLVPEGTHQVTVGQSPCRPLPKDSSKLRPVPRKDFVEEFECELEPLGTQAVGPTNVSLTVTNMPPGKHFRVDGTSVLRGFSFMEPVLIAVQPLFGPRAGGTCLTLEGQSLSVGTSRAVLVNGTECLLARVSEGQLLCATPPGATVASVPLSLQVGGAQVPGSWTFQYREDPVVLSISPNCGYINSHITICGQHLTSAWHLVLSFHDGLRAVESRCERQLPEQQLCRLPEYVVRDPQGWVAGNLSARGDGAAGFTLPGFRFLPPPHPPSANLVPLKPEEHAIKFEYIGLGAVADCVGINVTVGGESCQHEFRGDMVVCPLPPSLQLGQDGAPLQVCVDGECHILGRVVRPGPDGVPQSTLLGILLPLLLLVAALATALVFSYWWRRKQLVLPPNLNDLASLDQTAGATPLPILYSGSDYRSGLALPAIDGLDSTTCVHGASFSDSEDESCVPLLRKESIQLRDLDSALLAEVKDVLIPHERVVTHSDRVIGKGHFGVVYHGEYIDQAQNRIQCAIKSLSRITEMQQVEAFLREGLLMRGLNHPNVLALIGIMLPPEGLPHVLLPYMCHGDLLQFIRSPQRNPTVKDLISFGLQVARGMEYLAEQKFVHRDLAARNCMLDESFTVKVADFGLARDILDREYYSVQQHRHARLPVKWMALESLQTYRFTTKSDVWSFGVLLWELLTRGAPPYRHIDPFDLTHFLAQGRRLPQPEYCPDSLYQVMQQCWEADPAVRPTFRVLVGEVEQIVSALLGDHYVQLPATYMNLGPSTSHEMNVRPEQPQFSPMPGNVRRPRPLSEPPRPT

Compound | pIC50 (RON) | pIC50 (cMET)
Nc1nccc(Oc2c(F)cc(NC(=O)c3cnn(-c4cccnn4)c3C(F)(F)F)cc2F)c1C1CC1 [Example 42, N-(4-((2-amino-3-cyclopropylpyridin-4-yl)oxy)-3,5-difluorophenyl)-1-(pyridazin-3-yl)-5-(trifluoromethyl)-1H-pyrazole-4-carboxamide] | > 7.30 | 5.30 to 6.30
N#Cc1c(Oc2c(F)cc(NC(=O)c3cnn(-c4ncccc4F)c3C(F)(F)F)cc2F)ccnc1N [Example 33, N-(4-((2-amino-3-cyanopyridin-4-yl)oxy)-3,5-difluorophenyl)-1-(3-fluoropyridin-2-yl)-5-(trifluoromethyl)-1H-pyrazole-4-carboxamide] | > 7.30 | 6.30 to 7.30
CCc1c(C(=O)Nc2cc(F)c(Oc3ccnc(N)c3Cl)c(F)c2)cnn1-c1ncccc1F [Example 4, N-(4-((2-amino-3-chloropyridin-4-yl)oxy)-3,5-difluorophenyl)-5-ethyl-1-(3-fluoropyridin-2-yl)-1H-pyrazole-4-carboxamide] | > 7.30 | < 5.30
Nc1nccc(Oc2c(F)cc(NC(=O)c3cnn(-c4ccccn4)c3C(F)(F)F)cc2F)c1C#CCO [Example 52, N-(4-((2-amino-3-(3-hydroxyprop-1-yn-1-yl)pyridin-4-yl)oxy)-3,5-difluorophenyl)-1-(pyridin-2-yl)-5-(trifluoromethyl)-1H-pyrazole-4-carboxamide] | > 7.30 | 6.30 to 7.30
N#Cc1c(Oc2c(F)cc(NC(=O)c3cnn(-c4ncccc4Cl)c3C(F)(F)F)cc2F)ccnc1N [Example 34, N-(4-((2-amino-3-cyanopyridin-4-yl)oxy)-3,5-difluorophenyl)-1-(3-chloropyridin-2-yl)-5-(trifluoromethyl)-1H-pyrazole-4-carboxamide] | > 7.30 | 6.30 to 7.30
Nc1nccc(Oc2c(F)cc(NC(=O)c3cnn(-c4cccnn4)c3C(F)(F)F)cc2F)c1C#CCO [Example 56, N-(4-((2-amino-3-(3-hydroxyprop-1-yn-1-yl)pyridin-4-yl)oxy)-3,5-difluorophenyl)-1-(pyridazin-3-yl)-5-(trifluoromethyl)-1H-pyrazole-4-carboxamide] | > 7.30 | 6.30 to 7.30
Nc1nccc(Oc2cc(F)c(NC(=O)c3cnn(-c4ncccc4F)c3C(F)(F)F)c(F)c2)c1Cl [Example 7, N-(4-((2-amino-3-chloropyridin-4-yl)oxy)-2,6-difluorophenyl)-1-(3-fluoropyridin-2-yl)-5-(trifluoromethyl)-1H-pyrazole-4-carboxamide] | 6.30 to 7.30 | < 5.30
Nc1nccc(Oc2c(F)cc(NC(=O)c3cnn(-c4ncccn4)c3C(F)(F)F)cc2F)c1Cl [Example 2, N-(4-((2-amino-3-chloropyridin-4-yl)oxy)-3,5-difluorophenyl)-1-(pyrimidin-2-yl)-5-(trifluoromethyl)-1H-pyrazole-4-carboxamide] | > 7.30 | 5.30 to 6.30
Nc1nccc(Oc2c(F)cc(NC(=O)c3cnn(-c4cccnn4)c3C(F)(F)F)cc2F)c1I [Example 17, N-(4-((2-amino-3-iodopyridin-4-yl)oxy)-3,5-difluorophenyl)-1-(pyridazin-3-yl)-5-(trifluoromethyl)-1H-pyrazole-4-carboxamide] | > 7.30 | 5.30 to 6.30
C#Cc1c(Oc2c(F)cc(NC(=O)c3cnn(-c4ccccc4)c3C(F)(F)F)cc2F)ccnc1N [Example 25, N-(4-((2-amino-3-ethynylpyridin-4-yl)oxy)-3,5-difluorophenyl)-1-phenyl-5-(trifluoromethyl)-1H-pyrazole-4-carboxamide] | > 7.30 | 5.30 to 6.30
Nc1nccc(Oc2cc(F)c(NC(=O)c3cnn(-c4ccccc4)c3C(F)(F)F)c(F)c2)c1Cl [Example 8, N-(4-((2-amino-3-chloropyridin-4-yl)oxy)-2,6-difluorophenyl)-1-phenyl-5-(trifluoromethyl)-1H-pyrazole-4-carboxamide] | 5.30 to 6.30 | < 5.30
CC(C)c1c(Oc2c(F)cc(NC(=O)c3cnn(-c4ncccc4Cl)c3C(F)(F)F)cc2F)ccnc1N [Example 44, N-(4-((2-amino-3-isopropylpyridin-4-yl)oxy)-3,5-difluorophenyl)-1-(3-chloropyridin-2-yl)-5-(trifluoromethyl)-1H-pyrazole-4-carboxamide] | > 7.30 | 5.30 to 6.30
